# Measurements reported in US20200207782A1, “CHEMICALLY ACTIVATED WATER-SOLUBLE PRODRUG” (SUMITOMO DAINIPPON PHARMA CO., LTD, priority 2017, published 2020).
# Several values for one entry are separate records, joined by “and”; a condition that tells them apart may be missing. Equal entries are not always repeated. Structures can show the parent of a compound that is named as a salt.
# Tests used:
# [1] = Solution stability test (residual ratio and generation of active form in buffers of pH 2.0 to 9.0); type: physicochemical; parameters: Rate of generation of active form after 24 hours in buffer with pH of 7.4: tested at 25 µM; conditions: for Residual ratio / Rate of generation of active form after 24 hours in buffer with pH of 7.4: 25° C.; for Residual ratio: 25 umol/L; for Degradation behaviour in buffers (in words): pH 2.0 to 9.0; for Rate of generation of active form after 24 hours in buffer with pH of 7.4: pH 7.4 buffer
# Description: The test compounds were incubated at 25° C. at a concentration of 25 umol/L in a buffer prepared to have a pH of 2.0, 3.0, 5.0, 7.4, and 9.0. The compounds were measured by HPLC after 0, 3, 6, 9, 12, and 24 hours.
# The buffers used at each pH are the following. • pH 2.0: 50 mmol/L glycine buffer • pH 3.0: 50 mmol/L citrate buffer • pH 5.0: 50 mmol/L citrate buffer • pH 7.4: 50 mmol/L phosphate buffer • pH 9.0: 50 mmol/L glycine buffer
# The measurement conditions for HPLC are the following.
# The yield of the Example and Reference Example compounds and active forms is calculated with each of the peak area of the Example and Reference Example compounds at 0 minutes and the peak area upon dissolution of the corresponding active form at 100 umol/L as 100%. The yield is denoted in terms of %
# [2] = physchem; conditions: thermodynamic from solid; for solubility at 24 h: pH 2, aqueous buffer
# Description: The solubility of the water-soluble prodrugs described in the Examples and the Reference Examples was measured. […] The filtrate was measured by HPLC.
# [3] = Evaluation of conversion rate to active form in human plasma; type: in vitro ADME; conditions: Human plasma, incubation time 120 minutes
# Description: (§1) The ratio of decrease of a test compound and the conversion ratio to a corresponding active form (2-acetylthieno[3,2-f][1]benzofuran-4,8-dione) in human plasma and CD1 mouse plasma were measured for Example 1.
# (§2) The test compounds were incubated at 37° C. at a concentration of 10 umol/L in human plasma (cat. no. 12250210, Cosmo Bio) and CD1 mouse plasma (cat. no. AP3054, KAC) and retrieved for a given time (0, 5, 10, 30, 60, and 120 minutes) and deproteinized, then analyzed by LC-MS. Acetonitrile comprising each of 10% quantity of 1 mol/L hydrochloric acid, 1% quantity of 46% citric acid, and phenytoin as an internal standard was used for deproteinization.
# (§3) LC-MS measurement conditions were the following.
# (§4) The yield of the Examples compounds and active form 2-acetylthieno[3,2-f][1]benzofuran-4,8-dione is calculated with each of the peak area of the Example compounds at 0 minutes and the peak area upon dissolution of 2-acetylthieno[3,2-f][1]benzofuran-4,8-dione at 100 umol/L as 100%. The yield is denoted in terms of %.
# (§5) In the same manner as Example 1, the conversion ratio to an active form was measured for each of the various test compounds in human plasma and CD1 mouse plasma, with incubation time as 120 minutes. It was confirmed that the series of compounds of the invention was converted to an active form with a small interspecies difference in human plasma and CD1 mouse plasma.
# (§6) The yield of the active forms is calculated with the each peak area upon dissolution of the generated active form at 100 umol/L as 100%. The yield is denoted in terms of %.
# [4] = Evaluation of conversion rate to active form in CD1 mouse plasma; type: in vitro ADME; conditions: CD1 mouse plasma, incubation time 120 minutes
# Description: as §1, §2, §3, §4, §5, §6
smiles,measurement,setting,value
"NCCCNC(=O)Oc1c(OC(=O)NCCCN)c(-c2ccccc2)c2c(c1-c1ccccc1)OCO2 [Example 6, 4,7-Diphenyl-1,3-benzodioxole-5,6-diyl bis[(3-aminopropyl)carbamate]dihydrochloride]",Residual ratio,"[1]; pH2.0 buffer, 0 hr",100%
same,Residual ratio,"[1]; pH2.0 buffer, 3 hr",100%
same,Residual ratio,"[1]; pH2.0 buffer, 6 hr",100%
same,Residual ratio,"[1]; pH2.0 buffer, 9 hr",100%
same,Residual ratio,"[1]; pH2.0 buffer, 12 hr",100%
same,Residual ratio,"[1]; pH2.0 buffer, 24 hr",100%
same,Degradation behaviour in buffers (in words),[1],pH dependent and chemical degradation progressed
same,Residual ratio,"[1]; pH3.0 buffer, 0 hr",100%
same,Residual ratio,"[1]; pH3.0 buffer, 3 hr",100%
same,Residual ratio,"[1]; pH3.0 buffer, 6 hr",100%
same,Residual ratio,"[1]; pH3.0 buffer, 9 hr",100%
same,Residual ratio,"[1]; pH3.0 buffer, 12 hr",100%
same,Residual ratio,"[1]; pH3.0 buffer, 24 hr",100%
same,Residual ratio,"[1]; pH5.0 buffer, 0 hr",100%
same,Residual ratio,"[1]; pH5.0 buffer, 3 hr",100%
same,Residual ratio,"[1]; pH5.0 buffer, 6 hr",99.8%
same,Residual ratio,"[1]; pH5.0 buffer, 9 hr",99.6%
same,Residual ratio,"[1]; pH5.0 buffer, 12 hr",99.5%
same,Residual ratio,"[1]; pH5.0 buffer, 24 hr",99.5%
same,Residual ratio,"[1]; pH7.4 buffer, 0 hr",96.8%
same,Residual ratio,"[1]; pH7.4 buffer, 3 hr",65.8%
same,Residual ratio,"[1]; pH7.4 buffer, 6 hr",45.2%
same,Residual ratio,"[1]; pH7.4 buffer, 9 hr",31.4%
same,Residual ratio,"[1]; pH7.4 buffer, 12 hr",22.2%
same,Residual ratio,"[1]; pH7.4 buffer, 24 hr",17% and 16.5%
same,Residual ratio,"[1]; pH9.0 buffer, 0 hr",10.4%
same,Residual ratio,"[1]; pH9.0 buffer, 3 hr",0.4%
same,Residual ratio,"[1]; pH9.0 buffer, 6 hr",0.7%
same,Residual ratio,"[1]; pH9.0 buffer, 9 hr",0.7%
same,Residual ratio,"[1]; pH9.0 buffer, 12 hr",0.9%
same,Residual ratio,"[1]; pH9.0 buffer, 24 hr",0.9%
same,Stability in solution (in words),"[1]; pH of 2.0, 25° C.",very stable
same,Stability in solution (in words),"[1]; pH of 3.0, 25° C.",very stable
same,Stability in solution (in words),"[1]; pH of 5.0, 25° C.",very stable
same,solubility at 24 h,[2],> 10000 µg/mL
"CN1CC[C@H](c2c(O)cc(OC(=O)N(C)CCN)c3c(=O)cc(-c4ccccc4Cl)oc23)[C@H](O)C1 [Example 9, 2-(2-chlorophenyl)-7-hydroxy-8-[(3S,4R)-3-hydroxy-1-methylpiperidin-4-yl]-4-oxo-4H-chromen-5-yl (2-aminoethyl)methylcarbamate ditrifluoroacetate]",Degradation behaviour in buffers (in words),[1],pH dependent and chemical degradation progressed
same,Rate of generation of active form after 24 hours in buffer with pH of 7.4,[1],23%
same,Stability in solution (in words),"[1]; pH of 2.0, 25° C.",stable
same,Stability in solution (in words),"[1]; pH of 3.0, 25° C.",stable
same,Stability in solution (in words),"[1]; pH of 5.0, 25° C.",stable
"O=C1C(=O)C(c2ccccc2)=C2OCOC2=C1c1ccccc1 [4,7-diphenyl-1,3-benzodioxol-5,6-dione, reference compound]",solubility at 24 h,[2]; 50 mmol/L glycine buffer,0.3 µg/mL
"CC1(C)CCc2c(OC(=O)NCCNCC(=O)O)c(OC(=O)NCCNCC(=O)O)c3ccccc3c2O1 [Example 4, 2,2′-[(2,2-Dimethyl-3,4-dihydro-2H-benzo[H]chromene-5,6-diyl)bis(oxycarbonyliminoethane-2,1-diylimino)]diacetic acid dihydrochloride]",Degradation behaviour in buffers (in words),[1],pH dependent and chemical degradation progressed
same,Stability in solution (in words),"[1]; pH of 2.0, 25° C.",sufficient stability
same,Stability in solution (in words),"[1]; pH of 3.0, 25° C.",sufficient stability
same,solubility at 24 h,[2],> 10000 µg/mL
"CN1CC[C@H](c2c(OC(=O)N(C)CCN)cc(O)c3c(=O)cc(-c4ccccc4Cl)oc23)[C@H](O)C1 [Example 8, 2-(2-chlorophenyl)-5-hydroxy-8-[(3S,4R)-3-hydroxy-1-methylpiperidin-4-yl]-4-oxo-4H-chromen-7-yl (2-aminoethyl) methylcarbamate ditrifluoroacetate]",Residual ratio,"[1]; pH2.0 buffer, 0 hr",100%
same,Residual ratio,"[1]; pH2.0 buffer, 3 hr",100%
same,Residual ratio,"[1]; pH2.0 buffer, 6 hr",100%
same,Residual ratio,"[1]; pH2.0 buffer, 9 hr",100%
same,Residual ratio,"[1]; pH2.0 buffer, 12 hr",100%
same,Residual ratio,"[1]; pH2.0 buffer, 24 hr",100%
same,Degradation behaviour in buffers (in words),[1],pH dependent and chemical degradation progressed
same,Residual ratio,"[1]; pH3.0 buffer, 0 hr",100%
same,Residual ratio,"[1]; pH3.0 buffer, 3 hr",100%
same,Residual ratio,"[1]; pH3.0 buffer, 6 hr",100%
same,Residual ratio,"[1]; pH3.0 buffer, 9 hr",100%
same,Residual ratio,"[1]; pH3.0 buffer, 12 hr",100%
same,Residual ratio,"[1]; pH3.0 buffer, 24 hr",100%
same,Residual ratio,"[1]; pH5.0 buffer, 0 hr",100%
same,Residual ratio,"[1]; pH5.0 buffer, 3 hr",98.2%
same,Residual ratio,"[1]; pH5.0 buffer, 6 hr",96.1%
same,Residual ratio,"[1]; pH5.0 buffer, 9 hr",94.4%
same,Residual ratio,"[1]; pH5.0 buffer, 12 hr",92.4%
same,Residual ratio,"[1]; pH5.0 buffer, 24 hr",85% and 85.2%
same,Residual ratio,"[1]; pH7.4 buffer, 0 hr",76.4%
same,Residual ratio,"[1]; pH7.4 buffer, 3 hr",0.1%
same,Residual ratio,"[1]; pH7.4 buffer, 6 hr",0.0%
same,Residual ratio,"[1]; pH7.4 buffer, 9 hr",0.1%
same,Residual ratio,"[1]; pH7.4 buffer, 12 hr",0.2%
same,Residual ratio,"[1]; pH7.4 buffer, 24 hr",0.5%
same,Rate of generation of active form after 24 hours in buffer with pH of 7.4,[1],88%
same,Residual ratio,"[1]; pH9.0 buffer, 0 hr",9.7%
same,Residual ratio,"[1]; pH9.0 buffer, 3 hr",0.2%
same,Residual ratio,"[1]; pH9.0 buffer, 6 hr",0.2%
same,Residual ratio,"[1]; pH9.0 buffer, 9 hr",0.1%
same,Residual ratio,"[1]; pH9.0 buffer, 12 hr",0.1%
same,Residual ratio,"[1]; pH9.0 buffer, 24 hr",0.0%
same,Stability in solution (in words),"[1]; pH of 2.0, 25° C.",sufficient stability
same,Stability in solution (in words),"[1]; pH of 3.0, 25° C.",sufficient stability
same,solubility,"[2]; pH 5, aqueous buffer",> 10000 µg/mL
"CNCCN(C)C(=O)Oc1cc(O)c([C@H]2CCN(C)C[C@H]2O)c2oc(-c3ccccc3Cl)cc(=O)c12 [Example 11, 2-(2-Chlorophenyl)-7-hydroxy-8-[(3S,4R)-3-hydroxy-1-methylpiperidin-4-yl]-4-oxo-4H-chromen-5-yl methyl[2-(methylamino)ethyl]carbamate ditrifluoroacetate]",Degradation behaviour in buffers (in words),[1],pH dependent and chemical degradation progressed
same,Stability in solution (in words),"[1]; pH of 2.0, 25° C.",stable
same,Stability in solution (in words),"[1]; pH of 3.0, 25° C.",stable
same,Stability in solution (in words),"[1]; pH of 5.0, 25° C.",stable
"CC1=CC(=O)c2ccccc2C1=O [2-methylnaphthalen-1,4-dione, reference compound]",solubility at 24 h,[2]; 50 mmol/L glycine buffer,97 µg/mL
"CNCCN(C)C(=O)Oc1cc(O)c2c(=O)cc(-c3ccccc3Cl)oc2c1[C@H]1CCN(C)C[C@H]1O [Example 10, 2-(2-Chlorophenyl)-5-hydroxy-8-[(3S,4R)-3-hydroxy-1-methylpiperidin-4-yl]-4-oxo-4H-chromen-7-yl methyl[2-(methylamino)ethyl]carbamate ditrifluoroacetate]",Degradation behaviour in buffers (in words),[1],pH dependent and chemical degradation progressed
same,Rate of generation of active form after 24 hours in buffer with pH of 7.4,[1],96%
same,Stability in solution (in words),"[1]; pH of 2.0, 25° C.",sufficient stability
same,Stability in solution (in words),"[1]; pH of 3.0, 25° C.",sufficient stability
"COC(=O)[C@H](CCNC(=O)Oc1c(C)c(CCCCCCCCCCOC(=O)OC(C)(C)C)c(OC(=O)NCC[C@H](NC(=O)OC(C)(C)C)C(=O)OC)c(OC)c1OC)NC(=O)OC(C)(C)C [Reference Example 11, Dimethyl (2S,2′S)-4,4′-[(2-{10-[(tert-butoxycarbonyl)oxy]decayl}-5,6-dimethoxy-3-methylbenzene-1,4-diyl)bis(oxycarbonylimino)]bis{2-[(tert-butoxycarbonyl)amino]butanoate}]",Rate of generation of active form after 24 hours in buffer with pH of 7.4,[1],91%
same,Conversion ratio to an active form (Measurement value %),[3],100%
same,Conversion ratio to an active form (Measurement value %),[4],100%
"CC(=O)c1cc2c(o1)C(=O)c1cccc(O)c1C2=O [2-acetyl-5-hydroxynaphtho[2,3-b]furan-4,9-dione, reference compound]",solubility,"[2]; 50 mmol/L glycine buffer, pH 3, aqueous buffer",1 µg/mL
